Data published in patent publication US7763267B2, “Versatile high load concentrate compositions for control of ecto- parasites” (Wyeth LLC, priority 2005, dated 2010).

System: biting lice
Assay: Effect of metaflumizone body spray on biting lice of sheep
Assay type: in vivo
Conditions: 10 mg/kg as body spray (1500 ml/animal), vs untreated control lice/animal
Experimental: 12.59 grams of metaflumizone is added to dimethyl isosorbide using mild heating (approximately 40° C.). To this solution is added 109.92 grams Cremophor® EL (polyethoxylated castor oil, sold by Basf Aktiengesellschaft), with stirring, followed by q.s. 200 ml 1-methoxy-2-propyl acetate The resultant solution is stored until ready for use, whereupon it can be diluted with water for use as a spray (17 ml of concentrate diluted to 3500 ml with water), or with water for use as a feed/water additive (in approximately the same ratio).
This formulation was diluted with water to a metaflumizone concentration of 10 mg/kg bodyweight, and applied to sheep at 1500 ml/animal to test the effect of metaflumizone on biting lice

Measured: % Efficacy

N#Cc1ccc(CC(=NNC(=O)Nc2ccc(OC(F)(F)F)cc2)c2cccc(C(F)(F)F)c2)cc1 [metaflumizone, (E Z)-2-[2-(4-cyanophenyl)-1-[3-(trifluoromethyl)phenyl]ethylidene]-N-[4-(trifluoromethoxy)phenyl]hydrazinecarboxamide]
100%: 7 days after treatment | 14 days after treatment | 21 days after treatment | 28 days after treatment
